Measurements published in patent US12371464B2, “Polypeptides and uses thereof” (MEDIMMUNE LIMITED, priority 2020, dated 2025).
Numbered stars: 1 amine (or outer) side, 2 acyl side, 3 side chain; on linkers, the order of the positions; unused ones are H or OH. Bridge positions count the residues as written; N and C are the ends. Square brackets hold non-standard residues; d marks the D form. Side chains are listed from the residue outwards. Peptide text beside a SMILES is read from it. * marks the point of attachment. C18 diacid = O=C(O)CCCCCCCCCCCCCCCCC(=O)*; γGlu = O=C(O)[C@H](CCC(=O)[*:2])N[*:1]; αMeF = C[C@](N)(Cc1ccccc1)C(=O)O; AEEA = NCCOCCOCC(=O)O

Assay: Thioflavin T fibrillation assay
Type: physicochemical
Settings: 1 mg/mL in 25 mM sodium acetate buffer pH 4.0, 37° C., 6 days, orbital shaking; >144 h = no increase
Excerpt: Peptide aggregation that form fibrils is an indication of physical instability. Fibril formation in solution poses a significant risk for the stability of injectable peptide drug products. Thioflavin T (ThT) fibrillation assay is a useful tool to assess the aggregation kinetics of a peptide or protein under accelerated and stressed conditions that can be used to forecast the long-term viability of a compound in solution. ThT can selectively bind amyloid fibrils and the resultant complex emits strong fluorescence signal at 482 nm when excited at 450 nm (Anal Biochem. 1989 March; 177 (2): 244-9). Monitoring of the change in fluorescence signal is an established method to study the fibril forming potential of peptides and proteins. ThT (purchased from Sigma Aldrich) stock solution is prepared by dissolving the ThT powder in Milli-Q water and filtered to obtain a 0.25 mM solution. The concentration of the solution is measured at 412 nm using an extinction coefficient of 36 mM-1 cm-1. Test peptides were dissolved at 1 mg/mL in 25 mM sodium acetate buffer pH 4.0. 100 μL aliquot of peptide solution and 5 μL aliquot of ThT solution were placed in a clear bottom black fluorescence 96-well plate. 5 replicates of each test samples were placed in the same row of the plate. Buffer was placed in control wells for baseline correction. All empty wells were filled with water to prevent evaporation. The plate was sealed with aluminium seal and placed in fluorescence plate reader and incubated for 6 days at 37° C. with intermittent orbital shaking at 500 to 750 rpm. The fluorescence intensity was measured every 30 min using excitation at 444 nm and emission at 480 nm. The fibril forming potential of the test peptides was determined by measuring the average time taken to detect an increase in baseline corrected fluorescence intensity.

Row | Structure (SMILES) | Time taken to detect increase in fluorescence intensity [h]
1 | CC[C@H](C)[C@H](NC(=O)[C@@H]1CCCN1C(=O)CNC(=O)[C@](C)(Cc1ccccc1)NC(=O)[C@H](CC(N)=O)NC(=O)[C@H](CC(N)=O)NC(=O)[C@H](CO)NC(=O)[C@H](CO)NC(=O)[C@H](Cc1c[nH]cn1)NC(=O)[C@H](CCCNC(=N)N)NC(=O)[C@H](CC(C)C)NC(=O)[C@H](Cc1ccccc1)NC(=O)[C@H](CCC(=O)O)NC(=O)[C@H](C)NC(=O)[C@H](CC(C)C)NC(=O)[C@H](CCCNC(=N)N)NC(=O)[C@H](CCC(N)=O)NC(=O)[C@@H](NC(=O)[C@H](C)NC(=O)[C@@H]1CSSC[C@H](NC(=O)CC[C@H](NC(=O)CCCCCCCCCCCCCCCCC(=O)O)C(=O)O)C(=O)N[C@@H](CC(N)=O)C(=O)N[C@@H]([C@@H](C)O)C(=O)N[C@@H](C)C(=O)N[C@@H]([C@@H](C)O)C(=O)N1)[C@@H](C)O)C(=O)N[C@@H](CC(C)C)C(=O)N1CCC[C@H]1C(=O)N1CCC[C@H]1C(=O)N[C@H](C(=O)N[C@@H](CC(N)=O)C(=O)N[C@H](C(=O)NCC(=O)N[C@@H](CO)C(=O)N[C@@H](CC(N)=O)C(=O)N[C@H](C(=O)N[C@@H](Cc1ccc(O)cc1)C(N)=O)[C@@H](C)O)C(C)C)[C@@H](C)O [Peptide 10, C18diacid-γE-[CNTATC]ATQRLAEFLRHSSNN(αMePhe)GPILPPTNVGSNTY-amide] ({C18 diacid-γGlu}-CNTATCATQRLAEFLRHSSNN[αMeF]GPILPPTNVGSNTY-NH2; disulfide 1-6) | >144
2 | CC[C@H](C)[C@H](NC(=O)[C@@H]1CCCN1C(=O)CNC(=O)[C@](C)(Cc1ccccc1)NC(=O)[C@H](CC(N)=O)NC(=O)[C@H](CC(N)=O)NC(=O)[C@H](CO)NC(=O)[C@H](CO)NC(=O)[C@H](Cc1c[nH]cn1)NC(=O)[C@@H](NC(=O)[C@H](CC(C)C)NC(=O)[C@H](Cc1ccccc1)NC(=O)[C@H](CC(N)=O)NC(=O)[C@H](C)NC(=O)[C@H](CC(C)C)NC(=O)[C@H](CCCNC(=N)N)NC(=O)[C@H](CCC(N)=O)NC(=O)[C@@H](NC(=O)[C@H](C)NC(=O)[C@@H]1CSSC[C@H](NC(=O)[C@@H](N)CCCCNC(=O)CC[C@H](NC(=O)CC[C@H](NC(=O)CCCCCCCCCCCCCCCCC(=O)O)C(=O)O)C(=O)O)C(=O)N[C@@H](CC(N)=O)C(=O)N[C@@H]([C@@H](C)O)C(=O)N[C@@H](C)C(=O)N[C@@H]([C@@H](C)O)C(=O)N1)[C@@H](C)O)C(C)C)C(=O)N[C@@H](CC(C)C)C(=O)N1CCC[C@H]1C(=O)N1CCC[C@H]1C(=O)N[C@H](C(=O)N[C@@H](CC(N)=O)C(=O)N[C@H](C(=O)NCC(=O)N[C@@H](CO)C(=O)N[C@@H](CC(N)=O)C(=O)N[C@H](C(=O)N[C@@H](Cc1ccc(O)cc1)C(N)=O)[C@@H](C)O)C(C)C)[C@@H](C)O [Peptide 13, K(γE-γE-C18diacid)[CNTATC]ATQRLANFLVHSSNN(αMePhe)GPILPPTNVGSNTY-amide] (H-K([γGlu-γGlu-C18 diacid])CNTATCATQRLANFLVHSSNN[αMeF]GPILPPTNVGSNTY-NH2; disulfide 2-7; N-terminus assumed) | 25
3 | CC[C@H](C)[C@H](NC(=O)[C@@H]1CCCN1C(=O)CNC(=O)[C@](C)(Cc1ccccc1)NC(=O)[C@H](CC(N)=O)NC(=O)[C@H](CC(N)=O)NC(=O)[C@H](CO)NC(=O)[C@H](CO)NC(=O)[C@H](Cc1c[nH]cn1)NC(=O)[C@H](CCCNC(=N)N)NC(=O)[C@H](CC(C)C)NC(=O)[C@H](Cc1ccccc1)NC(=O)[C@H](CC(N)=O)NC(=O)[C@H](C)NC(=O)[C@H](CC(C)C)NC(=O)[C@H](CCCNC(=N)N)NC(=O)[C@H](CCC(N)=O)NC(=O)[C@@H](NC(=O)[C@H](C)NC(=O)[C@@H]1CSSC[C@H](NC(=O)[C@@H](N)CCCCNC(=O)COCCOCCNC(=O)COCCOCCNC(=O)CC[C@H](NC(=O)CCCCCCCCCCCCCCCCC(=O)O)C(=O)O)C(=O)N[C@@H](CC(N)=O)C(=O)N[C@@H]([C@@H](C)O)C(=O)N[C@@H](C)C(=O)N[C@@H]([C@@H](C)O)C(=O)N1)[C@@H](C)O)C(=O)N[C@@H](CC(C)C)C(=O)N1CCC[C@H]1C(=O)N1CCC[C@H]1C(=O)N[C@H](C(=O)N[C@@H](CCC(=O)O)C(=O)N[C@H](C(=O)NCC(=O)N[C@@H](CO)C(=O)N[C@@H](CC(N)=O)C(=O)N[C@H](C(=O)N[C@@H](Cc1ccc(O)cc1)C(N)=O)[C@@H](C)O)C(C)C)[C@@H](C)O [Peptide 17, K(O2Oc-O2Oc-γE-C18diacid)[CNTATC]ATQRLANFLRHSSNN(αMePhe)GPILPPTEVGSNTY-amide] (H-K([AEEA-AEEA-γGlu-C18 diacid])CNTATCATQRLANFLRHSSNN[αMeF]GPILPPTEVGSNTY-NH2; disulfide 2-7; N-terminus assumed) | >144
4 | CC[C@H](C)[C@H](NC(=O)[C@@H]1CCCN1C(=O)CNC(=O)[C@](C)(Cc1ccccc1)NC(=O)[C@H](CC(N)=O)NC(=O)[C@H](CC(N)=O)NC(=O)[C@H](CO)NC(=O)[C@H](CO)NC(=O)[C@H](Cc1c[nH]cn1)NC(=O)[C@H](CCCNC(=N)N)NC(=O)[C@H](CC(C)C)NC(=O)[C@H](Cc1ccccc1)NC(=O)[C@H](CC(N)=O)NC(=O)[C@H](C)NC(=O)[C@H](CC(C)C)NC(=O)[C@H](CCCNC(=N)N)NC(=O)[C@H](CCC(N)=O)NC(=O)[C@@H](NC(=O)[C@H](C)NC(=O)[C@@H]1CSSC[C@H](NC(=O)[C@@H](N)CCCCNC(=O)CC[C@H](NC(=O)CC[C@H](NC(=O)CCCCCCCCCCCCCCCCC(=O)O)C(=O)O)C(=O)O)C(=O)N[C@@H](CC(N)=O)C(=O)N[C@@H]([C@@H](C)O)C(=O)N[C@@H](C)C(=O)N[C@@H]([C@@H](C)O)C(=O)N1)[C@@H](C)O)C(=O)N[C@@H](CC(C)C)C(=O)N1CCC[C@H]1C(=O)N1CCC[C@H]1C(=O)N[C@H](C(=O)N[C@@H](CCC(=O)O)C(=O)N[C@H](C(=O)NCC(=O)N[C@@H](CO)C(=O)N[C@@H](CC(N)=O)C(=O)N[C@H](C(=O)N[C@@H](Cc1ccc(O)cc1)C(N)=O)[C@@H](C)O)C(C)C)[C@@H](C)O [Peptide 18, K(γE-γE-C18diacid)[CNTATC]ATQRLANFLRHSSNN(αMePhe)GPILPPTEVGSNTY-amide] (H-K([γGlu-γGlu-C18 diacid])CNTATCATQRLANFLRHSSNN[αMeF]GPILPPTEVGSNTY-NH2; disulfide 2-7; N-terminus assumed) | >144

Further lines, results first:

Row | Time taken to detect increase in fluorescence intensity [h] | Structure (SMILES)
5 | >144 | CC[C@H](C)[C@H](NC(=O)[C@@H]1CCCN1C(=O)CNC(=O)[C@](C)(Cc1ccccc1)NC(=O)[C@H](CC(N)=O)NC(=O)[C@H](CC(N)=O)NC(=O)[C@H](CO)NC(=O)[C@H](CO)NC(=O)[C@H](Cc1c[nH]cn1)NC(=O)[C@H](CCCNC(=N)N)NC(=O)[C@H](CC(C)C)NC(=O)[C@H](Cc1ccccc1)NC(=O)[C@H](CCC(=O)O)NC(=O)[C@H](C)NC(=O)[C@H](CC(C)C)NC(=O)[C@H](CCCNC(=N)N)NC(=O)[C@H](CCC(N)=O)NC(=O)[C@@H](NC(=O)[C@H](C)NC(=O)[C@@H]1CSSC[C@H](NC(=O)[C@@H](N)CCCCNC(=O)CC[C@H](NC(=O)CC[C@H](NC(=O)CCCCCCCCCCCCCCCCC(=O)O)C(=O)O)C(=O)O)C(=O)N[C@@H](CC(N)=O)C(=O)N[C@@H]([C@@H](C)O)C(=O)N[C@@H](C)C(=O)N[C@@H]([C@@H](C)O)C(=O)N1)[C@@H](C)O)C(=O)N[C@@H](CC(C)C)C(=O)N1CCC[C@H]1C(=O)N1CCC[C@H]1C(=O)N[C@H](C(=O)N[C@@H](CC(N)=O)C(=O)N[C@H](C(=O)NCC(=O)N[C@@H](CO)C(=O)N[C@@H](CC(N)=O)C(=O)N[C@H](C(=O)N[C@@H](Cc1ccc(O)cc1)C(N)=O)[C@@H](C)O)C(C)C)[C@@H](C)O [Peptide 11, K(γE-γE-C18diacid)[CNTATC]ATQRLAEFLRHSSNN(αMePhe)GPILPPTNVGSNTY-amide] (H-K([γGlu-γGlu-C18 diacid])CNTATCATQRLAEFLRHSSNN[αMeF]GPILPPTNVGSNTY-NH2; disulfide 2-7; N-terminus assumed)
6 | >144 | CC[C@H](C)[C@H](NC(=O)[C@@H]1CCCN1C(=O)CNC(=O)[C@](C)(Cc1ccccc1)NC(=O)[C@H](CC(N)=O)NC(=O)[C@H](CC(N)=O)NC(=O)[C@H](CO)NC(=O)[C@H](CO)NC(=O)[C@H](Cc1c[nH]cn1)NC(=O)[C@H](CCCNC(=N)N)NC(=O)[C@H](CC(C)C)NC(=O)[C@H](Cc1ccccc1)NC(=O)[C@H](CC(N)=O)NC(=O)[C@H](C)NC(=O)[C@H](CC(C)C)NC(=O)[C@H](CCCNC(=N)N)NC(=O)[C@H](CCC(N)=O)NC(=O)[C@@H](NC(=O)[C@H](C)NC(=O)[C@@H]1CSSC[C@H](NC(=O)[C@@H](N)CCCCNC(=O)CC[C@H](NC(=O)CCCCCCCCCCCCCCCCC(=O)O)C(=O)O)C(=O)N[C@@H](CC(N)=O)C(=O)N[C@@H]([C@@H](C)O)C(=O)N[C@@H](C)C(=O)N[C@@H]([C@@H](C)O)C(=O)N1)[C@@H](C)O)C(=O)N[C@@H](CC(C)C)C(=O)N1CCC[C@H]1C(=O)N1CCC[C@H]1C(=O)N[C@H](C(=O)N[C@@H](CC(N)=O)C(=O)N[C@H](C(=O)NCC(=O)N[C@@H](CO)C(=O)N[C@@H](CC(N)=O)C(=O)N[C@H](C(=O)N[C@@H](Cc1ccc(O)cc1)C(N)=O)[C@@H](C)O)C(C)C)[C@@H](C)O [Peptide 19, K(γE-C18diacid)[CNTATC]ATQRLANFLRHSSNN(αMePhe)GPILPPTNVGSNTY-amide] (H-K([γGlu-C18 diacid])CNTATCATQRLANFLRHSSNN[αMeF]GPILPPTNVGSNTY-NH2; disulfide 2-7; N-terminus assumed)
